Each structure is given as a SMILES string. pIC50: −log10 of the molar value.

Experimental findings from ChEMBL document CHEMBL6096661, “Synthesis, biological evaluation and mechanism study of a novel indole-pyridine chalcone derivative as antiproliferative agent against tumor cells through dual targeting tubulin and HK2” (Eur J Med Chem, 2025) are described below.

In the experiment the test system is MDA-MB-231. Put plainly: Antiproliferative activity against human MDA-MB-231 cells assessed as reduction in cell proliferation incubated for 48 hrs by CCK-8 assay. The conditions noted are these: MDA-MB-231, 48 h. The experiment is classed as functional, cell-based. On the technique in general: Formazan colour is commonly taken as a measure of viable cells.
Consider `O=C(/C=C/c1cn(S(=O)(=O)c2ccc([N+](=O)[O-])cc2)c2ccc(N3CCOCC3)cc12)c1ccccc1`, for which the pIC50 is 4.62.
Turning to `c1cncc(C2=NOC(c3c[nH]c4ccc(N5CCOCC5)cc34)C2)c1` (stereo not given), the pIC50 was 4.04.
As for `O=C(/C=C/c1cn(S(=O)(=O)c2ccc(I)cc2)c2ccc(N3CCOCC3)cc12)c1ccncc1`, the pIC50 is 4.69.
Next, `CC(C)(C)OC(=O)n1cc(/C=C/C(=O)c2ccncc2)c2cc(N3CCOCC3)ccc21`: 5.12.
As to `COc1ccc(C(=O)/C=C/c2cn(S(=O)(=O)c3ccc([N+](=O)[O-])cc3)c3ccc(N4CCOCC4)cc23)c(OC)n1`, the pIC50 was 3.38.
Take `O=C(/C=C/c1cn(S(=O)(=O)c2ccc([N+](=O)[O-])cc2)c2ccc(N3CCOCC3)cc12)c1ccc(N2CCCCC2)nc1`: the negative-log IC50 (pIC50) is 3.82.
Next, `N#Cc1ccc(S(=O)(=O)n2cc(/C=C/C(=O)c3ccncc3)c3cc(N4CCOCC4)ccc32)cc1`: 5.26.
On to `COc1cc(C(=O)/C=C/c2c[nH]c3ccc(N4CCOCC4)cc23)cc(OC)c1OC`, for which the pIC50 was 4.95.
Next, `CC(=O)n1cc(/C=C/C(=O)c2ccncc2)c2cc(N3CCOCC3)ccc21`: 5.11.
`COc1cc(C(=O)/C=C/c2cn(S(=O)(=O)c3ccc(C)cc3)c3ccc(N4CCOCC4)cc23)cc(OC)c1OC`: the pIC50 is 4.70.
With `O=[N+]([O-])c1ccc(S(=O)(=O)n2cc(C3CC(c4ccncc4)=NO3)c3cc(N4CCOCC4)ccc32)cc1` (stereo not given), the pIC50 is 3.82.
Next, `COc1cc(C(=O)/C=C/c2cn(C)c3ccc(N4CCOCC4)cc23)cc(OC)c1OC`: 4.92.
Next, `O=C(/C=C/c1cn(S(=O)(=O)c2ccc([N+](=O)[O-])cc2)c2ccc(N3CCOCC3)cc12)c1nccs1`: 5.10.
The result for `O=C(/C=C/c1cn(S(=O)(=O)c2ccc(Br)cc2)c2ccc(N3CCOCC3)cc12)c1ccncc1` reads 5.02; that for `Cc1ccc(C(=O)/C=C/c2cn(S(=O)(=O)c3ccc([N+](=O)[O-])cc3)c3ccc(N4CCOCC4)cc23)cn1`, 5.20; that for `O=C(/C=C/c1cn(S(=O)(=O)c2ccc(F)cc2)c2ccc(N3CCOCC3)cc12)c1ccncc1`, 5.26.
On to `O=C(/C=C/c1cn(S(=O)(=O)c2ccc([N+](=O)[O-])cc2)c2ccc(N3CCSCC3)cc12)c1cccnc1`, for which the pIC50 is 5.40.
Take `O=C(/C=C/c1cn(S(=O)(=O)c2ccc([N+](=O)[O-])cc2)c2ccc(N3CCOCC3)cc12)c1cnc2ccccc2c1`: the pIC50 was 3.98.
The result for `Cc1ccc(S(=O)(=O)n2cc(C=O)c3cc(N4CCOCC4)ccc32)cc1` reads 4.80; that for `CC(C)(C)c1ccc(S(=O)(=O)n2cc(/C=C/C(=O)c3ccncc3)c3cc(N4CCOCC4)ccc32)cc1`, 5.10; that for `O=C(/C=C/c1cn(S(=O)(=O)c2cccc3ccccc23)c2ccc(N3CCOCC3)cc12)c1ccncc1`, 4.34.
`O=C(/C=C/c1cn(S(=O)(=O)c2ccc(C(F)(F)F)cc2)c2ccc(N3CCOCC3)cc12)c1ccncc1`: the pIC50 was 5.32.
Regarding `O=C(/C=C/c1cn(Cc2ccccc2)c2ccc(N3CCOCC3)cc12)c1ccncc1`, the pIC50 is 3.83.
`O=Cc1c[nH]c2ccc(N3CCOCC3)cc12`: the pIC50 is 4.05.
As to `C/C(=C\c1cn(S(=O)(=O)c2ccc([N+](=O)[O-])cc2)c2ccc(N3CCOCC3)cc12)C(=O)c1cccnc1`, the pIC50 was 4.37.
As for `O=C(/C=C/c1cn(S(=O)(=O)c2cccs2)c2ccc(N3CCOCC3)cc12)c1ccncc1`, the negative-log IC50 (pIC50) was 5.12.
As to `O=C(/C=C/c1cn(S(=O)(=O)c2ccc(Cl)cc2)c2ccc(N3CCOCC3)cc12)c1ccncc1`, the pIC50 is 5.14.
`O=C(/C=C/c1cn(S(=O)(=O)c2ccc([N+](=O)[O-])cc2)c2ccc(N3CCOCC3)cc12)c1ccco1`: the negative-log IC50 (pIC50) was 4.57.
Regarding `COc1ccc2c(c1)c(/C=C/C(=O)c1ccncc1)cn2S(=O)(=O)c1ccc(C)cc1`, the pIC50 was 5.42.
Next, `COc1cc(C(=O)/C=C/c2cn(C(=O)c3cc(OC)c(OC)c(OC)c3)c3ccc(N4CCOCC4)cc23)cc(OC)c1OC`: 4.86.

For orientation: pIC50 means −log10 of the IC50, conventionally taken in molar units.
